Experimental findings from patent US11503826B2, “Low volatility auxin herbicide formulations” (priority 2009, dated 2022) are described below.

Structures are written as SMILES. Structures can show the parent of a compound that is named as a salt.

A short description of data set [1]: Tank mix compatibility of dicamba salts with potassium glyphosate. The format is physicochemical. Conditions: for g to crystals: grams dicamba a.e. (35.8% a.e. salt solution) added to […] Roundup POWERMAX solution to induce crystallization or precipitation. An excerpt: The weight of the dicamba solution that caused precipitation was noted. The results are reported in Table 12a below where “salt” refers to the dicamba salt and “g to crystals” refers to the total amount of grams of dicamba a.e. that were required to induce crystallization or precipitation of crystals.

The nature of data set [2]: Distillation volatility: dicamba in distillate by HPLC/MS. The format is physicochemical. Conditions: for ppm Dicamba in distillate: Table 4h summary, 5% a.e. salt solution. On the procedure:
The pH was measured on a standard Orion Model 320 pH meter of each neat solution.
Simple distillation using a short path still was used to collect the water distillate containing the dicamba in the vapor phase of the salt solutions. A 50 mL distillation flask was used. The distillation receiver was a “cow” type with four 2 mL graduated sections. The solutions were heated at the 30% setting of the GlassCol heating unit and the boiling point of each distillation was noted. The first 2 ml of distillate was collected, and the receiver rotated to avoid collection of any further distillate in that section as the distillation flask cooled. The 2 mL sample was quantitatively transferred by pipette to HPLC vials for later analysis. Between each distillation the distillation apparatus was washed with 10 volumes of tap water, 10 volumes of distilled water, rinsed with acetone, and dried in a 60° C. oven. Each distillation was run in triplicate.
The distillate was collected and analyzed for dicamba concentration using HPLC/Mass Spectroscopy (MS). The HPLC column was an Agilent Zorbax Eclipse XDB-C8, 4.6×150 mm, 5u, PN 993967-90. Mobile phase A was 0.1% formic acid in D.I. water. Mobile phase B was 0.1% formic acid in acetonitrile. A flow rate of 1.2 mL/min was used and an injection volume of 5, 10, 15 or 25 ul was used depending on the dicamba level in the sample. The following gradient was used: […]
The MS parameters were as follows: Type SIR; ES-ion mode; 0.05 second inter channel delay; 0.05 second interscan time; 0.5 span (Da); 10 minutes elapsed time; and 6-6000 ppb calibration range. […] Channel 2 mass was 177 (Da); Dwell was 0.25(s); Cone(V)=tune and; 0.05(s) delay.

Data set [3] is described as follows: Aqueous solubility of dicamba acid and dicamba salts. Conditions: for solubility 20° C. a.e. / solubility 20° C. a.i.: equilibrated 5 to 7 days at 20° C.; for solubility 20° C. a.e.: 0.45 micron filter, HPLC. An excerpt: The solution was then passed through a 0.45 micron filter and assayed by HPLC for soluble dicamba.

Regarding `NCCO` [MEA], the Comment result in data set [1] (dicamba salt solution added to […] Roundup POWERMAX solution) is listed as “Clear solution, no precipitate”. Moreover, the g to crystals in data set [1] is recorded as over 34.2 g. Also, the “ppm Dicamba in distillate” value in data set [2] (pH 6.87) amounted to 0.5 ppm; in data set [2] (pH 8.03) it was 0.3 ppm. The “solubility 20° C. a.e.” value in data set [3] (Table 10a, dicamba salt, acid equivalent) is on record as over 71.9 wt %. Moreover, the “solubility 20° C. a.i.” value in data set [3] (Table 10a, dicamba salt, active ingredient) was over 91.8 wt %.
With `COc1c(Cl)ccc(Cl)c1C(=O)O` [Dicamba sodium salt, reference compound], the “crystallization in the presence of potassium glyphosate” value in data set [1] (35.8% a.e. dicamba salt solution added to […] Roundup POWERMAX solution) is reported as “induced crystallization”. Moreover, the g to crystals in data set [1] worked out at 13.6 g. The “Mean Dicamba in Distillate” value is recorded as 3.42 ppm in data set [2] (1% a.e. dicamba, solution pH 3.31); 0.70 ppm in data set [2] (1% a.e. dicamba, solution pH 4.25); 0.13 ppm in data set [2] (1% a.e. dicamba, solution pH 6.19); 0.09 ppm in data set [2] (1% a.e. dicamba, solution pH 9.82); 0.06 ppm in data set [2] (1% a.e. dicamba, solution pH 11.15); 5.74 ppm in data set [2] (2% a.e. dicamba, solution pH 3.33). The “Mean Dicamba in Distillate” value came out at 1.39 ppm in data set [2] (2% a.e. dicamba, solution pH 4.29); 0.32 ppm in data set [2] (2% a.e. dicamba, solution pH 6.28); 0.16 ppm in data set [2] (2% a.e. dicamba, solution pH 9.93); 0.15 ppm in data set [2] (2% a.e. dicamba, solution pH 11.50); 11.57 ppm in data set [2] (5% a.e. dicamba, solution pH 3.36); 2.36 ppm in data set [2] (5% a.e. dicamba, solution pH 4.34). The “Mean Dicamba in Distillate” value in data set [2] (5% a.e. dicamba, solution pH 6.32) is on record as 0.77 ppm; in data set [2] (5% a.e. dicamba, solution pH 10.36), 0.45 ppm; in data set [2] (5% a.e. dicamba, solution pH 12.15), 0.22 ppm. Also, the “ppm Dicamba in distillate” value in data set [2] (pH 6.32) came out at 0.8 ppm. The “aqueous solubility Approximate g a.e./L @20° C.” value in data set [3] (20° C., listed as sodium salt) is listed as 364 g a.e./L. The “aqueous solubility wt % a.e. @20° C.” value in data set [3] (20° C., listed as sodium salt) is on record as 36.3 wt % a.e; in data set [3] (Table 10b, second experiment, dicamba acid and salts, 20° C., listed as sodium salt), 36.3 wt % a.e. In addition, the “crystal formation on drying on a glass surface” value in data set [3] (Example 10) was “formed crystals very readily”. Besides, the “Comments (crystal formation)” value in data set [3] (Table 10a, dicamba salt solutions, listed as Na) is “Crystals form easily”. The “solubility 0° C. a.e.” value in data set [3] (Table 10a, dicamba salt, equilibrated 5 to 7 days at 0° C., acid equivalent, listed as Na) worked out at 33 wt %. Besides, the “solubility 0° C. a.i.” value in data set [3] (Table 10a, dicamba salt, equilibrated 5 to 7 days at 0° C., active ingredient, listed as Na) came out at 36.3 wt %. Also, the “solubility 20° C. a.e.” value in data set [3] (Table 10a, dicamba salt, acid equivalent, listed as Na) was determined as 36.3 wt %. In addition, in data set [3] (Table 10a, dicamba salt, active ingredient, listed as Na), the “solubility 20° C. a.i.” value is listed as 40.3 wt %. Moreover, the “aqueous solubility wt % a.i. @20° C.” value in data set [3] (Table 10b, second experiment, dicamba salts, 20° C., listed as sodium salt) came out at 40.3 wt % a.i.
